target: Rv1026/PPX2 (6×His-Rv1026) (Mycobacterium tuberculosis, UniProt P96374)
Sequence (P96374 whole entry): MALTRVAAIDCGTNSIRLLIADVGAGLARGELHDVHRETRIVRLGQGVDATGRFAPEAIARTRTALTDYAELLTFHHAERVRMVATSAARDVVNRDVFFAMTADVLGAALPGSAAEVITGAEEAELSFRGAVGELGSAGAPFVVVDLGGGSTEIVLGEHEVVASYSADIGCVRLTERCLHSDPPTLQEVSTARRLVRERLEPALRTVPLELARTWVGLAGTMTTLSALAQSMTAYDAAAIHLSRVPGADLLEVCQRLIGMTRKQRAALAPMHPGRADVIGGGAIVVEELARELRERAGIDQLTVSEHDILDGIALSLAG

Row | Structure (SMILES) | DAPI-based poly(P) hydrolysis assay
1 | Nc1ncnc2c1ncn2[C@@H]1O[C@H](COP(=O)(O)OP(=O)(O)O)[C@@H](O)[C@H]1O [ADP] | accelerated when recombinant protein was incubated with AMP/ADP and GMP/GDP
2 | Nc1ncnc2c1ncn2[C@@H]1O[C@H](COP(=O)(O)O)[C@@H](O)[C@H]1O [AMP] | accelerated when recombinant protein was incubated with AMP/ADP and GMP/GDP
3 | Nc1nc2c(ncn2[C@@H]2O[C@H](COP(=O)(O)OP(=O)(O)O)[C@@H](O)[C@H]2O)c(=O)[nH]1 [GDP] | accelerated when recombinant protein was incubated with AMP/ADP and GMP/GDP
4 | Nc1nc2c(ncn2[C@@H]2O[C@H](COP(=O)(O)O)[C@@H](O)[C@H]2O)c(=O)[nH]1 [GMP] | accelerated when recombinant protein was incubated with AMP/ADP and GMP/GDP

Source: PMC4453511 (mBio, 2015)
